Experimental data published in patent US9422265B2, “Process for the preparation of 3-(3-chloro-1H-pyrazol-1-yl)pyridine” (Dow AgroSciences LLC, priority 2014, dated 2016).

Assays:
[1] = test system: Sweetpotato Whitefly Crawler (Bemisia tabaci) (BEMITA); experiment: Bioassay on Sweetpotato Whitefly Crawler, cotton plant foliar spray; assay type: in vivo; settings: 200 ppm spray on cotton plants, graded after 8-9 days, live nymphs, Abbott's correction, read-out: BEMITA rating (% Control of Mortality)
Excerpt: Example B Bioassays on Sweetpotato Whitefly Crawler (Bemisia tabaci) (BEMITA.)
Cotton plants grown in 3-inch pots, with 1 small (3-5 cm) true leaf, were used at test substrate. The plants were placed in a room with whitefly adults. Adults were allowed to deposit eggs for 2-3 days. After a 2-3 day egg-laying period, plants were taken from the adult whitefly room. Adults were blown off leaves using a hand-held Devilbliss sprayer (23 psi). Plants with egg infestation (100-300 eggs per plant) were placed in a holding room for 5-6 days at 82° F. and 50% RH for egg hatch and crawler stage to develop. Four cotton plants were used for each treatment. Compounds (2 mg) were dissolved in 1 mL of acetone solvent, forming stock solutions of 2000 ppm. The stock solutions were diluted 10× with 0.025% Tween 20 in water to obtain a test solution at 200 ppm. A hand-held Devilbliss sprayer was used for spraying a solution to both sides of cotton leaf until runoff. Reference plants (solvent check) were sprayed with the diluent only. Treated plants were held in a holding room for 8-9 days at approximately 82° F. and 50% RH prior to grading. Evaluation was conducted by counting the number of live nymphs per plant under a microscope.

[2] = test system: Green Peach Aphid (Myzus persicae) (MYZUPE); experiment: Bioassay on Green Peach Aphid (GPA), cabbage seedling foliar spray; assay type: in vivo; settings: 72 h, 200 ppm spray on cabbage seedlings, graded after three days, live aphids, Abbott's correction, read-out: MYZUPE rating (% Control of Mortality)
Experimental: Example A Bioassays on Green Peach Aphid (“GPA”) (Myzus persicae) (MYZUPE.)
Several molecules disclosed herein were tested against GPA using procedures described below.
Cabbage seedling grown in 3-in pots, with 2-3 small (3-5 cm) true leaves, were used as test substrate. The seedlings were infested with […] (wingless adult and nymph stages) one day prior to chemical application. Four posts with individual seedlings were used for each treatment. Test compounds (2 mg) were dissolved in 2 mL of acetone/methanol (1:1) solvent, forming stock solutions of 1000 ppm test compound. The stock solutions were diluted 5× with 0.025% Tween 20 in water to obtain the solution at 200 ppm test compound. A hand-held aspirator-type sprayer was used for spraying a solution to both sides of the cabbage leaves until runoff. Reference plants (solvent check) were sprayed with the diluent only containing 20% by volume acetone/methanol (1:1) solvent. Treated plants were held in a holding room for three days at approximately 25° C. and ambient relative humidity (RH) prior to grading. Evaluation was conducted by counting the number of live aphids per plant under a microscope. Percent Control was measured by using Abbott's correction formula (W. S. Abbott, “A Method of Computing the Effectiveness of an Insecticide” J. Econ. Entomol 18 (1925), pp. 265-267) as follows. […]

CCN(C(=O)CCSCCC(F)(F)F)c1cn(-c2cccnc2)nc1Cl [Compound 2-11, N-(3-chloro-1-(pyridin-3-yl)-1H-pyrazol-4-yl)-N-ethyl-3-((3,3,3-trifluoropropyl)thio)propanamide] gave a mortality at 200 ppm [1] of 80 to 100% and a mortality at 200 ppm [2] of 80 to 100%.

Compound CCN(C(=O)CC[S+]([O-])CCC(F)(F)F)c1cn(-c2cccnc2)nc1Cl (stereo not shown) [Compound 2-12, N-(3-chloro-1-(pyridin-3-yl)-1H-pyrazol-4-yl)-N-ethyl-3-((3,3,3-trifluoropropyl)sulfoxo)propanamide] has a mortality at 200 ppm [1] of 80 to 100% and a mortality at 200 ppm [2] of 80 to 100%.
